Drawing on US10023592B2, “Bromodomain inhibitors” (Celgene Quanticel Research, Inc., priority 2013, dated 2018), this text covers IC50 for 24 compounds.

A value given as a limit tells only on which side of the number the result lay.

In assay [1] the target is BRD4(BD1) (Homo sapiens (Human), UniProt O60885). Description: In vitro enzyme inhibition assay (BRD4 AlphaScreen). It is filed as binding. Summed up:
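His-tagged BRD4 tested by AlphaScreen for binding of biotinylated H4K5/8/12/16-tetraacetyl peptide. After 20 min at room temperature, streptavidin donor and nickel chelate acceptor beads added (5 μg/mL final each). IC50 determined.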
(In general: In Alpha technology, singlet oxygen from a donor bead excites a nearby acceptor bead.)

The subject of assay [2] is NCI-H460, human non-small cell lung cancer cells. Description: Cell-MTS proliferation assay, NCI-H460. The format is cell-based. To be noted: Homo sapiens, 168 hr. Summed up:
(§1)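 Seeded for ~90% confluence at 7 days (Raji 15,000, HL-60 5,000, NCI-H460 3,000 cells/well); compound added 24 h post-plating as 11-point dilution, 100 μM to 2.0 nM final.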
In general terms: Tetrazolium dyes change colour on reduction, which living cells bring about.

In assay [3] the test system is HL-60, human proleukemia cells. As to the kind of experiment: Cell-MTS proliferation assay, HL-60. The format is cell-based. To be noted: Homo sapiens, 168 hr. Summed up: as §1
Assay [4] has as its system Raji, human Burkitts lymphoma cells. Description: Cell-MTS proliferation assay, Raji. To be noted: Homo sapiens, 168 hr. It is filed as cell-based. Summed up: as §1
Where [5] appears, read: in vitro enzyme inhibition assay.
Where [6] appears, read: NCI-H460, Cell-MTS proliferation.
Setting [7] is: NCI-H460, Cell-MTS, class symbols A/B/C.
Where [8] appears, read: HL-60, Cell-MTS, class symbols A/B/C.
[9] abbreviates: Raji, Cell-MTS, class symbols A/B/C.
[10] abbreviates: Cell-MTS proliferation, NCI-H460 cells.
The mark [11] stands for this setting: Cell-MTS proliferation, HL-60 cells.
Where [12] appears, read: Cell-MTS proliferation, Raji cells.

As usually defined, the IC50 is the concentration that gives 50% inhibition. Read a high IC50 as lower potency.

On to `CCS(=O)(=O)Nc1ncc(Oc2ccc(F)cc2F)c(-c2cn(C)c(=O)c3ccccc23)n1` [Example 170, N-[5-(2,4-difluorophenoxy)-4-(2-methyl-1-oxoisoquinolin-4-yl)pyrimidin-2-yl]ethanesulfonamide], for which the IC50 is < 500 nM in assay [1] (setting [5]); > 5000 nM in assay [2] (setting [6]); < 500 nM in assay [3] (HL-60, Cell-MTS proliferation); < 500 nM in assay [4] (Raji, Cell-MTS proliferation).

For `CCS(=O)(=O)Nc1ccc(OCC2CC2)c(-c2cn(C)c(=O)c3occc23)c1` [Example 255, N-[4-(cyclopropylmethoxy)-3-(6-methyl-7-oxofuro[2,3-c]pyridine-4-yl)phenyl]ethanesulfonamide], the IC50 in assay [1] (setting [5]) was < 500 nM; in assay [2] (setting [6]) it was > 5000 nM; in assay [3] (HL-60, Cell-MTS proliferation), < 500 nM; in assay [4] (Raji, Cell-MTS proliferation), < 500 nM.

As to `Cn1cc(-c2nc(S(C)(=O)=O)ccc2OCC2CC2)c2ccoc2c1=O` [Example 259, 4-[3-(cyclopropylmethoxy)-6-methylsulfonylpyridin-2-yl]-6-methylfuro[2,3-c]pyridin-7-one], the IC50 in assay [1] (setting [5]) is < 500 nM; in assay [2] (setting [6]) it was > 5000 nM; in assay [3] (HL-60, Cell-MTS proliferation), < 500 nM; in assay [4] (Raji, Cell-MTS proliferation) it was 500 to 5000 nM.

`CCOc1ccc(S(N)(=O)=O)cc1-c1ccc(=O)n(C)c1` [Example 117, 4-ethoxy-3-(1-methyl-6-oxopyridin-3-yl)benzenesulfonamide]: the IC50 in assay [1] (class symbols A/B/C) was < 500 nM; in assay [2] (setting [7]) it was > 5000 nM; in assay [3] (setting [8]), 500 to 5000 nM; in assay [4] (setting [9]), 500 to 5000 nM.

With `Cn1cc(-c2cc(S(C)(=O)=O)ccc2OCC2CC2)n2cnnc2c1=O` [Example 235, 5-[2-(cyclopropylmethoxy)-5-methylsulfonylphenyl]-7-methyl-[1,2,4]triazolo[4,3-a]pyrazin-8-one], the IC50 in assay [1] (setting [5]) is > 5000 nM; in assay [2] (setting [6]), > 5000 nM; in assay [3] (HL-60, Cell-MTS proliferation), > 5000 nM; in assay [4] (Raji, Cell-MTS proliferation), > 5000 nM.

On to `Cn1cc(-c2cc(S(C)(=O)=O)ccc2OCC2CC2)c2ccc(F)cc2c1=O` [Example 91, 4-[2-(cyclopropylmethoxy)-5-methylsulfonylphenyl]-7-fluoro-2-methyl-isoquinolin-1-one], for which the IC50 in assay [1] (class symbols A/B/C) was < 500 nM; in assay [2] (setting [7]) it was > 5000 nM; in assay [3] (setting [8]), < 500 nM; in assay [4] (setting [9]), < 500 nM.

Turning to `Cc1cc(-c2cc(S(C)(=O)=O)ccc2OCC2CCC2)cn(C)c1=O` [Example 459, 5-[2-(cyclobutylmethoxy)-5-methylsulfonylphenyl]-1,3-dimethylpyridin-2-one], the IC50 is < 500 nM in assay [1] (setting [5]), > 5000 nM in assay [2] (setting [10]), < 500 nM in assay [3] (setting [11]) and < 500 nM in assay [4] (setting [12]).

Take `Cn1cc(-c2ccc3c(=O)n(C)cc(-c4nc(CS(C)(=O)=O)ncc4OCC4CC4)c3c2)cn1` [Example 145, 4-[5-(cyclopropylmethoxy)-2-(methylsulfonylmethyl)pyrimidin-4-yl]-2-methyl-6-(1-methylpyrazol-4-yl)isoquinolin-1-one]: the IC50 in assay [1] (setting [5]) was < 500 nM; in assay [2] (setting [6]), > 5000 nM; in assay [3] (HL-60, Cell-MTS proliferation), < 500 nM; in assay [4] (Raji, Cell-MTS proliferation), 500 to 5000 nM.

For `Cn1cc(-c2cc(CS(C)(=O)=O)ccc2OCC(F)(F)F)c2ccoc2c1=O` [Example 258, 6-methyl-4-[5-(methylsulfonylmethyl)-2-(2,2,2-trifluoroethoxy)phenyl]furo[2,3-c]pyridin-7-one], the IC50 in assay [1] (setting [5]) is < 500 nM; in assay [2] (setting [6]), 500 to 5000 nM; in assay [3] (HL-60, Cell-MTS proliferation) it was < 500 nM; in assay [4] (Raji, Cell-MTS proliferation), 500 to 5000 nM.

`Cc1cc(-c2cc(OCc3ccccc3)cc(S(C)(=O)=O)c2)cn(C)c1=O` [Example 324, 1,3-dimethyl-5-(3-methylsulfonyl-5-phenylmethoxyphenyl)pyridin-2-one]: the half-inhibitory concentration (IC50) in assay [1] (setting [5]) was < 500 nM; in assay [2] (setting [6]), > 5000 nM; in assay [3] (HL-60, Cell-MTS proliferation), < 500 nM; in assay [4] (Raji, Cell-MTS proliferation), 500 to 5000 nM.

Consider `CCOc1sc(S(=O)(=O)CC)cc1-c1cn(C)c(=O)c2ccccc12` [Example 204, 4-(2-ethoxy-5-ethylsulfonylthiophen-3-yl)-2-methylisoquinolin-1-one], for which the IC50 in assay [1] (setting [5]) is < 500 nM; in assay [2] (setting [6]), > 5000 nM; in assay [3] (HL-60, Cell-MTS proliferation) it was 500 to 5000 nM; in assay [4] (Raji, Cell-MTS proliferation), 500 to 5000 nM.

Turning to `CCS(=O)(=O)c1ccc(OCC2CC2)c(-c2cn(C)c(=O)c3cnc(-c4cnn(C)c4)nc23)c1` [Example 226, 8-[2-(cyclopropylmethoxy)-5-ethylsulfonylphenyl]-6-methyl-2-(1-methylpyrazol-4-yl)pyrido[4,3-d]pyrimidin-5-one], the half-maximal inhibitory concentration (IC50) in assay [1] (setting [5]) was < 500 nM; in assay [2] (setting [6]), > 5000 nM; in assay [3] (HL-60, Cell-MTS proliferation), < 500 nM; in assay [4] (Raji, Cell-MTS proliferation), < 500 nM.

For the compound `CCS(=O)(=O)Nc1cccc(-c2cn(C)c(=O)c3ccncc23)c1` [Example 123, N-[3-(2-methyl-1-oxo-2,6-naphthyridin-4-yl)phenyl]ethanesulfonamide], the IC50 was 500 to 5000 nM in assay [1] (class symbols A/B/C), > 5000 nM in assay [2] (setting [7]), 500 to 5000 nM in assay [3] (setting [8]) and 500 to 5000 nM in assay [4] (setting [9]).

With `CCS(=O)(=O)Cc1ccc(OCC(F)(F)F)c(-c2cn(C)c(=O)c3cncn23)c1` [Example 371, 5-[5-(ethylsulfonylmethyl)-2-(2,2,2-trifluoroethoxy)phenyl]-7-methylimidazo[1,5-a]pyrazin-8-one], the IC50 in assay [1] (setting [5]) is 500 to 5000 nM; in assay [2] (setting [6]) it was > 5000 nM; in assay [3] (HL-60, Cell-MTS proliferation) it was 500 to 5000 nM; in assay [4] (Raji, Cell-MTS proliferation) it was 500 to 5000 nM.

For `Cc1cc(-c2cc(S(C)(=O)=O)ccc2OCC2CC2)cn(Cc2cocn2)c1=O` [Example 246, 5-[2-(cyclopropylmethoxy)-5-methylsulfonylphenyl]-3-methyl-1-(1,3-oxazol-4-ylmethyl)pyridin-2-one], the IC50 in assay [1] (setting [5]) was 500 to 5000 nM; in assay [2] (setting [6]), > 5000 nM; in assay [3] (HL-60, Cell-MTS proliferation) it was > 5000 nM; in assay [4] (Raji, Cell-MTS proliferation) it was > 5000 nM.

Consider `Cn1cc(-c2cc(S(C)(=O)=O)ccc2OCC2CC2)ccc1=O` [Example 98, 5-[2-(cyclopropylmethoxy)-5-methylsulfonylphenyl]-1-methylpyridin-2-one], for which the IC50 in assay [1] (class symbols A/B/C) is 500 to 5000 nM; in assay [2] (setting [7]) it was > 5000 nM; in assay [3] (setting [8]), 500 to 5000 nM; in assay [4] (setting [9]), 500 to 5000 nM.

For `Cc1cc(=O)n(C)cc1-c1cc(S(C)(=O)=O)ccc1OCC1CC1` [Example 477, 5-[2-(cyclopropylmethoxy)-5-methylsulfonylphenyl]-1,4-dimethylpyridin-2-one], the 50% inhibitory concentration (IC50) in assay [1] (setting [5]) is < 500 nM; in assay [2] (setting [10]), > 5000 nM; in assay [3] (setting [11]), < 500 nM; in assay [4] (setting [12]), 500 to 5000 nM.

As for `Cn1cc(-c2cc(S(C)(=O)=O)ccc2O[C@H]2CC[C@H](O)CC2)c2ccccc2c1=O` [Example 180, 4-[2-(trans-4-hydroxycyclohexyl)oxy-5-methylsulfonylphenyl]-2-methylisoquinolin-1-one], the 50% inhibitory concentration (IC50) was < 500 nM in assay [1] (setting [5]); > 5000 nM in assay [2] (setting [6]); < 500 nM in assay [3] (HL-60, Cell-MTS proliferation); < 500 nM in assay [4] (Raji, Cell-MTS proliferation).

For `Cn1cc(-c2cc(NS(C)(=O)=O)ccc2Oc2ccc(F)cc2F)c2occc2c1=O` [Example 380, N-[4-(2,4-difluorophenoxy)-3-(5-methyl-4-oxofuro[3,2-c]pyridin-7-yl)phenyl] methanesulfonamide], the IC50 in assay [1] (setting [5]) was < 500 nM; in assay [2] (setting [10]) it was > 5000 nM; in assay [3] (setting [11]), < 500 nM; in assay [4] (setting [12]), < 500 nM.

On to `Cn1cc(-c2cc(NS(C)(=O)=O)c(F)cc2OCC2CC2)c2c(c1=O)CCCC2` [Example 218, N-[4-(cyclopropylmethoxy)-2-fluoro-5-(2-methyl-1-oxo-5,6,7,8-tetrahydroisoquinolin-4-yl)phenyl]methanesulfonamide], for which the concentration for half-maximal inhibition (IC50) in assay [1] (setting [5]) was < 500 nM; in assay [2] (setting [6]), > 5000 nM; in assay [3] (HL-60, Cell-MTS proliferation), < 500 nM; in assay [4] (Raji, Cell-MTS proliferation), 500 to 5000 nM.

Turning to `CCCCc1cnc(NS(=O)(=O)CC)nc1-c1cc(C)c(=O)n(C)c1` [Example 310, N-[5-butyl-4-(1,5-dimethyl-6-oxopyridin-3-yl)pyrimidin-2-yl] ethanesulfonamide], the IC50 is < 500 nM in assay [1] (setting [5]); > 5000 nM in assay [2] (setting [6]); < 500 nM in assay [3] (HL-60, Cell-MTS proliferation); < 500 nM in assay [4] (Raji, Cell-MTS proliferation).

For the compound `CCS(=O)(=O)Nc1cccc(-c2cn(C)c(=O)c3ccc(-c4ccc(C)nc4)cc23)c1` [Example 72, N-[3-[2-methyl-6-(6-methylpyridin-3-yl)-1-oxoisoquinolin-4-yl]phenyl]ethanesulfonamide], the IC50 in assay [1] (class symbols A/B/C) is < 500 nM; in assay [2] (setting [7]), 500 to 5000 nM; in assay [3] (setting [8]) it was < 500 nM; in assay [4] (setting [9]), < 500 nM.

Regarding `CCCc1cnc(NS(=O)(=O)CC)nc1-c1cc(C)c(=O)n(C)c1` [Example 308, N-[4-(1,5-dimethyl-6-oxopyridin-3-yl)-5-propylpyrimidin-2-yl] ethanesulfonamide], the IC50 in assay [1] (setting [5]) is < 500 nM; in assay [2] (setting [6]), > 5000 nM; in assay [3] (HL-60, Cell-MTS proliferation), < 500 nM; in assay [4] (Raji, Cell-MTS proliferation), < 500 nM.

On to `Cn1cc(-c2cn(CS(C)(=O)=O)c(=O)cc2OCC2CC2)c2ccc(F)cc2c1=O` [Example 383, 4-[4-(cyclopropylmethoxy)-1-(methylsulfonylmethyl)-6-oxopyridin-3-yl]-7-fluoro-2-methylisoquinolin-1-one], for which the half-maximal inhibitory concentration (IC50) in assay [1] (setting [5]) is < 500 nM; in assay [2] (setting [10]), > 5000 nM; in assay [3] (setting [11]), < 500 nM; in assay [4] (setting [12]), 500 to 5000 nM.
